Assay results published in ChEMBL document CHEMBL5108045, “Identification and Utilization of a Chemical Probe to Interrogate the Roles of PIKfyve in the Lifecycle of β-Coronaviruses” (J Med Chem, 2022).
Calls of active or inactive are those of the source. No cut-off for these calls is given here.

Experiments:
Murine hepatitis virus = assay: microbe, parasite or virus in culture; details: Murine coronavirus, Astrocytoma delayed brain tumor (DBT) cell
Description: Antiviral activity against MHV-nLuc infected in DBT cells assessed as effect on cell viability by LDH assay

[1] = biological target: Serine/threonine-protein kinase TAO3 (Homo sapiens) (UniProt Q9H2K8); assay: Inhibition of human wild type partial length TAOK3 (M1 to T316 residues) expressed in mammalian expression system assessed as remaining activity at 1 uM by Kinomescan assay relative to control
[2] = biological target: Serine/threonine-protein kinase TAO2 (Homo sapiens) (UniProt Q9UL54); assay: Inhibition of human wild type partial length TAOK2 (M1 to A320 residues) expressed in mammalian expression system assessed as remaining activity at 1 uM by Kinomescan assay relative to control
[3] = biological target: Mitogen-activated protein kinase kinase kinase 2 (Homo sapiens) (UniProt Q9Y2U5); assay: Inhibition of wild-type human partial length MAP3K2 (S315 to H619 residues) expressed in mammalian expression system assessed as residual binding level at 1 uM by Kinomescan method relative to control
[4] = biological target: Dual serine/threonine and tyrosine protein kinase (Homo sapiens) (UniProt Q6XUX3); assay: Inhibition of human wild type full length RIPK5 (M1 to T929 residues) expressed in mammalian expression system assessed as remaining activity at 1 uM by Kinomescan assay relative to control
[5] = biological target: Serine/threonine-protein kinase TAO1 (Homo sapiens) (UniProt Q7L7X3); assay: Inhibition of human wild type TAOK1 assessed as remaining activity at 1 uM by MRC screening assay relative to control
[6] = biological target: Myosin light chain kinase family member 4 (Homo sapiens) (UniProt Q86YV6); assay: Inhibition of human wild type […] length MYLK4 (V79 to S380 residues) expressed in bacterial expression system assessed as remaining activity at 1 uM by Kinomescan assay relative to control
[7] = biological target: Mitogen-activated protein kinase kinase kinase 19 (Homo sapiens) (UniProt Q56UN5); assay: Inhibition of wild-type human partial length YSK4 (T1019 to H1328 residues) expressed in mammalian expression system assessed as residual binding level at 1 uM by Kinomescan method relative to control
[8] = biological target: Mitogen-activated protein kinase kinase kinase 3 (Homo sapiens) (UniProt Q99759); assay: Inhibition of human wild type partial length MAP3K3 (E320 to Y626 residues) expressed in mammalian expression system assessed as remaining activity at 1 uM by Kinomescan assay relative to control
[9] = biological target: Tyrosine-protein kinase JAK2 (Homo sapiens) (UniProt O60674); assay: Inhibition of human wild type JAK2 (JH1) domain assessed as remaining activity at 1 uM by MRC screening assay relative to control
[10] = biological target: Serine/threonine-protein kinase PAK 6 (Homo sapiens) (UniProt Q9NQU5); assay: Inhibition of human wild type PAK6 assessed as remaining activity at 1 uM by MRC screening assay relative to control
[11] = biological target: Mitogen-activated protein kinase kinase kinase kinase 2 (Homo sapiens) (UniProt Q12851); assay: Inhibition of human wild type partial length MAP4K2 (M1 to G318 residues) expressed in mammalian expression system assessed as remaining activity at 1 uM by Kinomescan assay relative to control
[12] = biological target: Citron Rho-interacting kinase (Homo sapiens) (UniProt O14578); assay: Inhibition of wild-type human partial length CIT (M68 to E432 residues) expressed in bacterial expression system assessed as residual binding level at 1 uM by Kinomescan method relative to control
[13] = biological target: Phosphatidylinositol 4-phosphate 5-kinase type-1 gamma (Homo sapiens) (UniProt O60331); assay: Inhibition of human wild type full length PIP5K1C (M1 to T668 residues) expressed in mammalian expression system assessed as remaining activity at 1 uM by Kinomescan assay relative to control
[14] = biological target: Serine/threonine-protein kinase PAK 4 (Homo sapiens) (UniProt O96013); assay: Inhibition of human wild type PAK4 assessed as remaining activity at 1 uM by MRC screening assay relative to control
[15] = biological target: cAMP-dependent protein kinase catalytic subunit PRKX (Homo sapiens) (UniProt P51817); assay: Inhibition of human wild type partial length PRKX (M1 to F358 residues) expressed in bacterial expression system assessed as remaining activity at 1 uM by Kinomescan assay relative to control
[16] = biological target: Phosphatidylinositol 5-phosphate 4-kinase type-2 gamma (Homo sapiens) (UniProt Q8TBX8); assay: Inhibition of human wild type full length PIP5K2C (M1 to A421 residues) expressed in mammalian expression system assessed as remaining activity at 1 uM by Kinomescan assay relative to control
[17] = biological target: Mitogen-activated protein kinase kinase kinase kinase 5 (Homo sapiens) (UniProt Q9Y4K4); assay: Inhibition of human wild type MAP4K5 assessed as remaining activity at 1 uM by MRC screening assay relative to control
[18] = biological target: Dual specificity mitogen-activated protein kinase kinase 4 (Homo sapiens) (UniProt P45985); assay: Inhibition of human wild type partial length MEK4 (S84 to D399 residues) expressed in mammalian expression system assessed as remaining activity at 1 uM by Kinomescan assay relative to control
[19] = biological target: Serine/threonine-protein kinase PAK 5 (Homo sapiens) (UniProt Q9P286); assay: Inhibition of human wild type PAK7 expressed in Escherichia coli assessed as remaining activity using RRRLSFAEPG peptide substrate at 1 uM by MRC screening assay relative to control
[20] = biological target: T1, 1-phosphatidylinositol 3-phosphate 5-kinase (Homo sapiens, UniProt Q9Y2I7); assay: Inhibition of PIKFYVE in HEK293 cells by NanoBRET assay; type: cell-based
[21] = biological target: T1, 1-phosphatidylinositol 3-phosphate 5-kinase; assay: Inhibition of human GST tagged PIKFYVE (1493 to end residues) expressed in baculovirus-infected Sf9 cells using PI(3)P:PS as substrate incubated for 60 mins in presence of ATP by ADP-Glo assay
Caco-2 = assay: (§1) Inhibition of His-6 tagged SARS-CoV-2 spike protein uptake in human Caco-2 cells at 1 uM incubated for 1 hr by fluorescence based analysis relative control; type: functional
Calu-3 [22] = assay: (§2) Inhibition of His-6 tagged SARS-CoV-2 spike protein uptake in human Calu-3 cells at 1 uM incubated for 1 hr by fluorescence based analysis relative control; type: functional
SH-SY5Y = assay: Induction of lysosome dysfunction in human SH-SY5Y cells at 5 uM incubated for 24 hrs by lyso-tracker red DND-99 based confocal microscopic method; type: functional, cell-based
Calu-3 [23] = assay: Inhibition of lentivirus pseudotyped with SARS-CoV-2 spike glycoprotein uptake in human Calu-3 cells at 1 uM preincubated for 1 hr prior to viral infection for 12 hrs by fluorescence based analysis; type: functional, cell-based
SARS-CoV-2 = assay: microbe, parasite or virus in culture; details: Severe acute respiratory syndrome coronavirus 2, A549-ACE2
Description: Antiviral activity against SARS-CoV-2 infected in human A549-ACE2 cells assessed as effect on cell viability pretreated with compound for 1 hr followed by viral infection measured after 2 hrs by Nano-Glo reagent based LDH assay

[24] = biological target: Microtubule-associated serine/threonine-protein kinase 1 (Homo sapiens) (UniProt Q9Y2H9); assay: Inhibition of wild-type human partial length MAST1 (S346 to V730 residues) expressed in mammalian expression system assessed as residual activity at 1 uM by Kinomescan method relative to control
[25] = as §1; type: functional
[26] = as §2; type: functional
[27] = Microsomal stability in CD-1 mouse liver microsomal assessed as parent compound remaining preincubated for 5 mins followed by NADPH addition measured after 30 mins by LC-TOFMS; type: ADME, subcellular; details: liver microsomes, time 35 min, read-out: Stability

T1 sequence (Q9Y2I7 whole entry): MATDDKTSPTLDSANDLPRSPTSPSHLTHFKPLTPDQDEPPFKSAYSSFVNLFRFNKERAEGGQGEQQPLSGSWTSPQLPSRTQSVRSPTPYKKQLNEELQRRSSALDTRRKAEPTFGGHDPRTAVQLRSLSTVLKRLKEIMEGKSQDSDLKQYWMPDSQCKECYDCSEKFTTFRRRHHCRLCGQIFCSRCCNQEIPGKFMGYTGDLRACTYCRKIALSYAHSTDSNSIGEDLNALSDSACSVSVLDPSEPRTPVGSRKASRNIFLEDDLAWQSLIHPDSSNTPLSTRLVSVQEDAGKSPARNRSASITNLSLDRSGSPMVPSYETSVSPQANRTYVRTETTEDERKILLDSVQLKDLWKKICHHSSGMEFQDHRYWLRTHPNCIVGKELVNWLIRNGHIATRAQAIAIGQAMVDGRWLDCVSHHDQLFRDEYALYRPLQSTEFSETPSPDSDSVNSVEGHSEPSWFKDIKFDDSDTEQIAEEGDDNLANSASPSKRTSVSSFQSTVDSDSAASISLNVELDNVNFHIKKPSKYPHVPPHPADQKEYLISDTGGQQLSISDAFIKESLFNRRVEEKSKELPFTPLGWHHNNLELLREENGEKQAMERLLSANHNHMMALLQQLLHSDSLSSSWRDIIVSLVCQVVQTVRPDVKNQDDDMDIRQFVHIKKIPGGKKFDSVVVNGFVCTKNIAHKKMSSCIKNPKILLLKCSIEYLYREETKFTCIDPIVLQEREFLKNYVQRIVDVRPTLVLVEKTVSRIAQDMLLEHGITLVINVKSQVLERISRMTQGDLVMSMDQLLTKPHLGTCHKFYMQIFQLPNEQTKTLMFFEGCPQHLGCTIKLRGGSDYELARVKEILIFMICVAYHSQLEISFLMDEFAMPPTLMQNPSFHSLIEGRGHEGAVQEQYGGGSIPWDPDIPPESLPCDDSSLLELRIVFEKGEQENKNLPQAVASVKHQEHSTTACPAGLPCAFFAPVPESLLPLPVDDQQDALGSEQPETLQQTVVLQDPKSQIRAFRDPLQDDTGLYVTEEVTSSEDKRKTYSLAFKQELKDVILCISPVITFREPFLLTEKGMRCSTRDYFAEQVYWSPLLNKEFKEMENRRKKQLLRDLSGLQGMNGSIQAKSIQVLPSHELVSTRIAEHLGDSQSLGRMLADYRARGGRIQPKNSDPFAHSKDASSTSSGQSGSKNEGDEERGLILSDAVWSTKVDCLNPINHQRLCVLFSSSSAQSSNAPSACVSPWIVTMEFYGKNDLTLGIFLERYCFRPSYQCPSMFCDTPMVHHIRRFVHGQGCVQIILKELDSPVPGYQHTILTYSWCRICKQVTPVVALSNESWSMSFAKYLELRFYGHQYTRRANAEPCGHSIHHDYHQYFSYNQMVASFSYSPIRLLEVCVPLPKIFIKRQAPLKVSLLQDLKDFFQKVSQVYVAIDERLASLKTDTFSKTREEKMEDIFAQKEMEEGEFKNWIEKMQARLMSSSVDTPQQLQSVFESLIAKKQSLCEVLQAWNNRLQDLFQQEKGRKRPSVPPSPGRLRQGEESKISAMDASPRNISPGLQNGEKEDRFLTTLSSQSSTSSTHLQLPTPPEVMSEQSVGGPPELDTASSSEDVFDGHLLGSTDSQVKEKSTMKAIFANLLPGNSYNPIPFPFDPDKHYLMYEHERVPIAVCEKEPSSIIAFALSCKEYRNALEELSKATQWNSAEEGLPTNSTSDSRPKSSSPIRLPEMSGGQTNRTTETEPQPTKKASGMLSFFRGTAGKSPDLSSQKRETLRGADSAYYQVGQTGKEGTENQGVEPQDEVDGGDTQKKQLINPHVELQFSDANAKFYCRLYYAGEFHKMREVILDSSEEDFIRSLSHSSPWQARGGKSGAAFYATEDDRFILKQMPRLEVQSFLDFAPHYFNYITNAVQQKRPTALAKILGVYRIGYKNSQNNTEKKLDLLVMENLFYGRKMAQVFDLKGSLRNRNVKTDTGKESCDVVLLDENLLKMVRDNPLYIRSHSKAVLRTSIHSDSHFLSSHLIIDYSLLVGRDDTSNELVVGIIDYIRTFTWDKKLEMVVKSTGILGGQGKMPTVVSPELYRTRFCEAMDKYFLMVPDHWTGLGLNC
Sequence of Serine/threonine-protein kinase TAO3 (Homo sapiens) (Q9H2K8 whole entry, the tested form may be a part): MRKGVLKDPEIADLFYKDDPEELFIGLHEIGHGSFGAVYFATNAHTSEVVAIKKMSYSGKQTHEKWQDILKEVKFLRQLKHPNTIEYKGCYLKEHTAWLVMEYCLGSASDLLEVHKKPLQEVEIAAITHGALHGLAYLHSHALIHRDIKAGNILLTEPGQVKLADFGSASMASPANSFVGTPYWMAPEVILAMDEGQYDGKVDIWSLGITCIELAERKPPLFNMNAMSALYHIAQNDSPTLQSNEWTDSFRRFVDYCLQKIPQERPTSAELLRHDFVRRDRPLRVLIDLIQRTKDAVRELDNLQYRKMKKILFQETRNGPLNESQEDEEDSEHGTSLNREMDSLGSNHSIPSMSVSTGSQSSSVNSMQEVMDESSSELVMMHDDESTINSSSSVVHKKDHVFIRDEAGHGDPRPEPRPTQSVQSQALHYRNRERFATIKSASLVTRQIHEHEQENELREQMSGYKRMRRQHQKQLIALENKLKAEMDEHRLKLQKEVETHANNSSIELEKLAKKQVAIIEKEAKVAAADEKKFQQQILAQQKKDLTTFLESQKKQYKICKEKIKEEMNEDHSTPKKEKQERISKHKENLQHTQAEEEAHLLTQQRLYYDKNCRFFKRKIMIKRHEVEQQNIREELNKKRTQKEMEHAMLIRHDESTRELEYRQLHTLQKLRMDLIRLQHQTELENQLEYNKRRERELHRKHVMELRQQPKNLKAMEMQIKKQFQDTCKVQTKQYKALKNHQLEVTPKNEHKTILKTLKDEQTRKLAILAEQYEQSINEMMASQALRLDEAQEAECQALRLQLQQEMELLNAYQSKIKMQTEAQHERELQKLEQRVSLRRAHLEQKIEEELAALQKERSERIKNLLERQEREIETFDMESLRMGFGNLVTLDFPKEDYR
Sequence of Mitogen-activated protein kinase kinase kinase 3 (Homo sapiens) (Q99759 whole entry, the tested form may be a part): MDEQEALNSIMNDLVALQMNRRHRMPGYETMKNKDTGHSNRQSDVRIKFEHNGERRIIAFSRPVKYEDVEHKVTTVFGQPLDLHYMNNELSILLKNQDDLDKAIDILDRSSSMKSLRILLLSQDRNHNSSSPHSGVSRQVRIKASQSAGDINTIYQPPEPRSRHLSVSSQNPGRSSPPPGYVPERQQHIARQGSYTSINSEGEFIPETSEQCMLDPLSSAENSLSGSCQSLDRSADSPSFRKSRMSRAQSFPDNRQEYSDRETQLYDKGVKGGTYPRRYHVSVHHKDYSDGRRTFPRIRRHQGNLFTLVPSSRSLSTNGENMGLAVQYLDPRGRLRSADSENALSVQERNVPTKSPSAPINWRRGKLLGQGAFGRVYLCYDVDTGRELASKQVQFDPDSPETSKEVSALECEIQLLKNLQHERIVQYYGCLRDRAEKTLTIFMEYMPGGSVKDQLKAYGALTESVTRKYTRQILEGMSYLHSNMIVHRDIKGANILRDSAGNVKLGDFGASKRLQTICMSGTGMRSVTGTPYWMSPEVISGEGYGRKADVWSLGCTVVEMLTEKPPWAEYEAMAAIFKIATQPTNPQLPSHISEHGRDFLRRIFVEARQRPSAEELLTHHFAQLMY
Sequence of Phosphatidylinositol 5-phosphate 4-kinase type-2 gamma (Homo sapiens) (Q8TBX8 whole entry, the tested form may be a part): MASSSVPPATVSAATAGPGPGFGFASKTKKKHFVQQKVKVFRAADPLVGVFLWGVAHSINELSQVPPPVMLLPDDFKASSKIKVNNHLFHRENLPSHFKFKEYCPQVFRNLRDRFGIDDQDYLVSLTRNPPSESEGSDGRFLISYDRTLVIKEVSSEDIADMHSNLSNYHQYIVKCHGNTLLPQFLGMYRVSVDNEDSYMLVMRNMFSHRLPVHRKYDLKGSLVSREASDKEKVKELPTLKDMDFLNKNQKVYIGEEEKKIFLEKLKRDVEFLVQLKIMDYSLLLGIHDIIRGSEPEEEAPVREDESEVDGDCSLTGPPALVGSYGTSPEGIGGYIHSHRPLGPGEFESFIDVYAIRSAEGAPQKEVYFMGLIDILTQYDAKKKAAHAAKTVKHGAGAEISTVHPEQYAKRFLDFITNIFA
Sequence of Phosphatidylinositol 4-phosphate 5-kinase type-1 gamma (Homo sapiens) (O60331 whole entry, the tested form may be a part): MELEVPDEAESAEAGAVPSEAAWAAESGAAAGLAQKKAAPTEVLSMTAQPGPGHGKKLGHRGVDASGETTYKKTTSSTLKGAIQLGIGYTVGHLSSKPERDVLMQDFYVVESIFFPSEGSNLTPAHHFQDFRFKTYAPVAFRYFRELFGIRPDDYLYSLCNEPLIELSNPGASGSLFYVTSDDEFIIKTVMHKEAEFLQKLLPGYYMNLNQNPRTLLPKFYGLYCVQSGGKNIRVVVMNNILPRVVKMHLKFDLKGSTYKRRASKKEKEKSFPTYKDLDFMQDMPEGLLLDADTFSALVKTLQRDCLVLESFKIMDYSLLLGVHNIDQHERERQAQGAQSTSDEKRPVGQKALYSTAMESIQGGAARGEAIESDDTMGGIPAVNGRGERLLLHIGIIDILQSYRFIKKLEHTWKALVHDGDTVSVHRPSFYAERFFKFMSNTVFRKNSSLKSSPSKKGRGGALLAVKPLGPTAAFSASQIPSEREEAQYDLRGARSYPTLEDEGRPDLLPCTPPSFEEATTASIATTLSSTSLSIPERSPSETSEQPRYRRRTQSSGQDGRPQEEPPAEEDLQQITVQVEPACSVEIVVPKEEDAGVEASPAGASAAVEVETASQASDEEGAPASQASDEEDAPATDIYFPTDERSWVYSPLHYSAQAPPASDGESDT
Sequence of cAMP-dependent protein kinase catalytic subunit PRKX (Homo sapiens) (P51817 whole entry, the tested form may be a part): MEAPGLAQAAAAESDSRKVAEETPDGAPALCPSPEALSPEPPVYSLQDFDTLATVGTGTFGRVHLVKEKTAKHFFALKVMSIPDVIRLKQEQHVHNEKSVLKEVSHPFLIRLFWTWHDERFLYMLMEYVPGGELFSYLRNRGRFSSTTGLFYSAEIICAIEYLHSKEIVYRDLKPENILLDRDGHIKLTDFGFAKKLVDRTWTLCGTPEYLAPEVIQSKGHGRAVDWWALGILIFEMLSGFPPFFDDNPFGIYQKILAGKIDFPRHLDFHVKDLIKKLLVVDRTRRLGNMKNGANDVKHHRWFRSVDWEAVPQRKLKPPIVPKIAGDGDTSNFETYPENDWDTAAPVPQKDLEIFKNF

Structure (SMILES) | IC50 (Murine hepatitis virus) [nM] | IC50 (Murine hepatitis virus; read-out: pIC50 (converted)) [nM] | IC50 [20] [nM] | IC50 [21] [nM] | also measured
Cc1cccc(/C=N/Nc2cc(N3CCOCC3)n3nc(-c4ccncc4)cc3n2)c1 | 40.4 | 40.7 | – | – | –
CC(C)(O)C#Cc1ccc2[nH]c3c(c2c1)-c1nc(N)ncc1CCC3 | – | – | – | – | Activity [1]: < 10%; Activity [2]: < 10%; Activity [3]: < 10%; Activity [4]: < 10%; Activity [5]: < 10%; Activity [6]: < 10%; Activity [7]: < 10%; Activity [8]: < 10%; Activity [9]: < 10%; Activity [10]: < 10%; Activity [11]: < 10%; Activity [12]: < 10%; Activity [13]: < 10%; Activity [14]: < 10%; Activity [15]: < 10%; Activity [16]: < 10%; Activity [17]: < 10%; Activity [18]: < 10%; Activity [19]: < 10%
CN(C)CC#Cc1ccc2[nH]c3c(c2c1)-c1nc(N)ncc1CC3 | – | – | 123 | – | –
Cn1cc(-c2ccc3[nH]c4c(c3c2)-c2nc(N)ncc2CC4)cn1 | 5350 | 5370 | 4970 | 34 | –
Nc1ncc2c(n1)-c1c([nH]c3ccc(C#Cc4ccncc4)cc13)CC2 | – | – | 2980 | – | –
Cc1cccc(/C=N/Nc2cc(N3CCOCC3)nc(OCCc3ccccn3)n2)c1 | – | – | – | – | inhibition (Caco-2): Active; inhibition (Calu-3 [22]): Active; Activity (SH-SY5Y): Active; inhibition (Calu-3 [23]): Active
CC(C)C(O)C#Cc1ccc2[nH]c3c(c2c1)-c1nc(N)ncc1CCC3 (stereo not given) | – | – | 45.7 | – | –
Nc1ncc2c(n1)-c1c([nH]c3ccc(C#Cc4ccncc4)cc13)CCCC2 | – | – | 5290 | 580 | –
CCC(CC)COC(=O)[C@H](C)N[P@](=O)(OC[C@H]1O[C@@](C#N)(c2ccc3c(N)ncnn23)[C@H](O)[C@@H]1O)Oc1ccccc1 | – | – | – | – | IC50 (SARS-CoV-2): 86.4 nM
CC(C)(O)C#Cc1ccc2[nH]c3c(c2c1)-c1nc(N)ncc1CCCC3 | 8470 | 8510 | 2450 | 61 | –
Nc1ncc2c(n1)-c1c([nH]c3ccc(-c4ccc(F)cc4)cc13)CC2 | 713 | 708 | 380 | 8.2 | –
CC(C)(O)C#Cc1ccc2[nH]c3c(c2c1)-c1nc(N)ncc1CC3 | – | – | 220 | – | –
Nc1ncc2c(n1)-c1c([nH]c3ccc(C#CC4CC4)cc13)CCCC2 | 1800 | 1780 | 700 | 75 | –
Nc1ncc2c(n1)-c1c([nH]c3ccc(C#CC4CC4)cc13)CC2 | – | – | 300 | – | –
CC(C)C(O)C#Cc1ccc2[nH]c3c(c2c1)-c1nc(N)ncc1CC3 (stereo not given) | 1920 | 1910 | 1170 | – | –
Nc1ncc2c(n1)-c1c([nH]c3ccc(-c4ccc(F)cc4)cc13)CCC2 | 71 | 70.8 | 11.4 | 9.3 | IC50 (SARS-CoV-2): 73.3 nM; Activity (SH-SY5Y): Active; inhibition (Calu-3 [23]): Active
Nc1ncc2c(n1)-c1c([nH]c3ccc(C4CC4)cc13)CCCC2 | > 10000 | > 10000 | – | – | Activity [24]: 32%; IC50 (SARS-CoV-2): > 10000 nM
Nc1ncc2c(n1)-c1c([nH]c3ccc(-c4ccc(F)cc4)cc13)CCCC2 | – | – | 2560 | – | –
CN(C)CC#Cc1ccc2[nH]c3c(c2c1)-c1nc(N)ncc1CCC3 | – | – | – | – | inhibition at 1 µM [25]: > 91%; inhibition at 1 µM [26]: > 75%; remaining at 0.5 h [27]: 12.6%; Activity (SH-SY5Y): Active; inhibition (Calu-3 [23]): Active
Cn1cc(-c2ccc3[nH]c4c(c3c2)-c2nc(N)ncc2CCC4)cn1 | 666 | 661 | 1560 | 26 | –
Cn1cncc1C#Cc1ccc2[nH]c3c(c2c1)-c1nc(N)ncc1CCCC3 | – | – | > 10000 | 290 | –
Cn1cncc1C#Cc1ccc2[nH]c3c(c2c1)-c1nc(N)ncc1CC3 | 8050 | 8130 | > 10000 | 77 | –
CN(C)CC#Cc1ccc2[nH]c3c(c2c1)-c1nc(N)ncc1CCCC3 | – | – | 683 | 430 | –
Nc1ncc2c(n1)-c1c([nH]c3ccc(C#Cc4ccncc4)cc13)CCC2 | 485 | 490 | 885 | 22 | –
